Test results as given in ChEMBL document CHEMBL5385976, “Recognition of arylmethylidene derivatives of imidazothiazolotriazinones as novel tubulin polymerization inhibitors” (RSC Med Chem, 2024).

How the values were obtained:
Format in all cases: functional
KM12 = assay: Anticancer activity against human KM12 cells assessed as cell growth at 10 umol/L incubated for 48 hrs by SRB assay relative to control; settings: KM12, 48 h, dose 10 µmol/L, read-out: Activity
RXF 393 = assay: Anticancer activity against human RXF 393 cells assessed as cell growth at 10 umol/L incubated for 48 hrs by SRB assay relative to control; settings: RXF 393, 48 h, dose 10 µmol/L, read-out: Activity
IGROV-1 = assay: Anticancer activity against human IGROV-1 cells assessed as cell growth at 10 umol/L incubated for 48 hrs by SRB assay relative to control; settings: IGROV-1, 48 h, dose 10 µmol/L, read-out: Activity
SF-539 = assay: Anticancer activity against human SF-539 cells assessed as cell growth at 10 umol/L incubated for 48 hrs by SRB assay relative to control; settings: SF-539, 48 h, dose 10 µmol/L, read-out: Activity
A549 = assay: Anticancer activity against human A549 cells assessed as cell growth at 10 umol/L incubated for 48 hrs by SRB assay relative to control; settings: A549, 48 h, dose 10 µmol/L, read-out: Activity
SK-OV-3 = assay: Anticancer activity against human SK-OV-3 cells assessed as cell growth at 10 umol/L incubated for 48 hrs by SRB assay relative to control; settings: SK-OV-3, 48 h, dose 10 µmol/L, read-out: Activity
NCI/ADR-RES = assay: Anticancer activity against human NCI-ADR-RES cells assessed as cell growth at 10 umol/L incubated for 48 hrs by SRB assay relative to control; settings: dose 10 µmol/L, read-out: Activity
SR = assay: Anticancer activity against human SR cells assessed as cell growth at 10 umol/L incubated for 48 hrs by SRB assay relative to control; settings: dose 10 µmol/L, read-out: Activity
OVCAR-4 = assay: Anticancer activity against human OVCAR-4 cells assessed as cell growth at 10 umol/L incubated for 48 hrs by SRB assay relative to control; settings: OVCAR-4, 48 h, dose 10 µmol/L, read-out: Activity
COLO 205 = assay: Anticancer activity against human COLO 205 cells assessed as cell growth at 10 umol/L incubated for 48 hrs by SRB assay relative to control; settings: COLO 205, 48 h, dose 10 µmol/L, read-out: Activity
SK-MEL-2 = assay: Anticancer activity against human SK-MEL-2 cells assessed as cell growth at 10 umol/L incubated for 48 hrs by SRB assay relative to control; settings: SK-MEL-2, 48 h, dose 10 µmol/L, read-out: Activity
SF-268 = assay: Anticancer activity against human SF-268 cells assessed as cell growth at 10 umol/L incubated for 48 hrs by SRB assay relative to control; settings: SF-268, 48 h, dose 10 µmol/L, read-out: Activity
MCF7 = assay: Anticancer activity against human MCF7 cells assessed as cell growth at 10 umol/L incubated for 48 hrs by SRB assay relative to control; settings: MCF7, 48 h, dose 10 µmol/L, read-out: Activity
Hs-578T = assay: Anticancer activity against human Hs-578T cells assessed as cell growth at 10 umol/L incubated for 48 hrs by SRB assay relative to control; settings: dose 10 µmol/L, read-out: Activity
HCT-116 = assay: Anticancer activity against human HCT-116 cells assessed as cell growth at 10 umol/L incubated for 48 hrs by SRB assay relative to control; settings: HCT-116, 48 h, dose 10 µmol/L, read-out: Activity
A498 = assay: Anticancer activity against human A498 cells assessed as cell growth at 10 umol/L incubated for 48 hrs by SRB assay relative to control; settings: A498, 48 h, dose 10 µmol/L, read-out: Activity
UACC-62 = assay: Anticancer activity against human UACC-62 cells assessed as cell growth at 10 umol/L incubated for 48 hrs by SRB assay relative to control; settings: UACC-62, 48 h, dose 10 µmol/L, read-out: Activity
UO-31 = assay: Anticancer activity against human UO-31 cells assessed as cell growth at 10 umol/L incubated for 48 hrs by SRB assay relative to control; settings: UO-31, 48 h, dose 10 µmol/L, read-out: Activity
DU-145 = assay: Anticancer activity against human DU-145 cells assessed as cell growth at 10 umol/L incubated for 48 hrs by SRB assay relative to control; settings: DU-145, 48 h, dose 10 µmol/L, read-out: Activity
RPMI-8226 = assay: Anticancer activity against human RPMI-8226 cells assessed as cell growth at 10 umol/L incubated for 48 hrs by SRB assay relative to control; settings: RPMI-8226, 48 h, dose 10 µmol/L, read-out: Activity
HOP-92 = assay: Anticancer activity against human HOP-92 cells assessed as cell growth at 10 umol/L incubated for 48 hrs by SRB assay relative to control; settings: HOP-92, 48 h, dose 10 µmol/L, read-out: Activity
NCI-H226 = assay: Anticancer activity against human NCI-H226 cells assessed as cell growth at 10 umol/L incubated for 48 hrs by SRB assay relative to control; settings: NCI-H226, 48 h, dose 10 µmol/L, read-out: Activity
OVCAR-5 = assay: Anticancer activity against human OVCAR-5 cells assessed as cell growth at 10 umol/L incubated for 48 hrs by SRB assay relative to control; settings: OVCAR-5, 48 h, dose 10 µmol/L, read-out: Activity
NCI-H522 = assay: Anticancer activity against human NCI-H522 cells assessed as cell growth at 10 umol/L incubated for 48 hrs by SRB assay relative to control; settings: NCI-H522, 48 h, dose 10 µmol/L, read-out: Activity
TK-10 = assay: Anticancer activity against human TK-10 cells assessed as cell growth at 10 umol/L incubated for 48 hrs by SRB assay relative to control; settings: TK-10, 48 h, dose 10 µmol/L, read-out: Activity
U-251 = assay: Anticancer activity against human U-251 cells assessed as cell growth at 10 umol/L incubated for 48 hrs by SRB assay relative to control; settings: U-251, 48 h, dose 10 µmol/L, read-out: Activity
MDA-MB-435 = assay: Anticancer activity against human MDA-MB-435 cells assessed as cell growth at 10 umol/L incubated for 48 hrs by SRB assay relative to control; settings: MDA-MB-435, 48 h, dose 10 µmol/L, read-out: Activity
MDA-MB-468 = assay: Anticancer activity against human MDA-MB-468 cells assessed as cell growth at 10 umol/L incubated for 48 hrs by SRB assay relative to control; settings: MDA-MB-468, 48 h, dose 10 µmol/L, read-out: Activity
HOP-62 = assay: Anticancer activity against human HOP-62 cells assessed as cell growth at 10 umol/L incubated for 48 hrs by SRB assay relative to control; settings: HOP-62, 48 h, dose 10 µmol/L, read-out: Activity
SK-MEL-28 = assay: Anticancer activity against human SK-MEL-28 cells assessed as cell growth at 10 umol/L incubated for 48 hrs by SRB assay relative to control; settings: SK-MEL-28, 48 h, dose 10 µmol/L, read-out: Activity

Compound | growth at 10 µM (KM12) [%] | growth at 10 µM (RXF 393) [%] | growth at 10 µM (IGROV-1) [%] | growth at 10 µM (SF-539) [%] | growth at 10 µM (A549) [%] | growth at 10 µM (SK-OV-3) [%] | growth at 10 µM (NCI/ADR-RES) [%] | growth at 10 µM (SR) [%] | growth at 10 µM (OVCAR-4) [%] | growth at 10 µM (COLO 205) [%] | growth at 10 µM (SK-MEL-2) [%] | growth at 10 µM (SF-268) [%] | growth at 10 µM (MCF7) [%] | growth at 10 µM (Hs-578T) [%] | growth at 10 µM (HCT-116) [%] | growth at 10 µM (A498) [%] | growth at 10 µM (UACC-62) [%] | growth at 10 µM (UO-31) [%] | growth at 10 µM (DU-145) [%] | growth at 10 µM (RPMI-8226) [%] | also measured
COc1cc2c(c(OC)c1OC)-c1ccc(OC)c(=O)cc1[C@@H](NC(C)=O)CC2 [COLCHICINE] | 3.7 | 15.3 | -49 | 7.9 | 44.9 | 36.1 | -20.9 | 5.4 | 56.4 | -47.6 | -32 | 35.1 | -9.6 | -7.1 | 0.2 | 15.5 | 19.1 | 21.2 | 7.6 | 2.3 | growth at 10 µM (HOP-92): 2.4%; growth at 10 µM (NCI-H226): 31%; growth at 10 µM (OVCAR-5): 31.2%; growth at 10 µM (NCI-H522): -64.2%; growth at 10 µM (TK-10): 52.7%; growth at 10 µM (U-251): 19%; growth at 10 µM (MDA-MB-435): -50.8%; growth at 10 µM (MDA-MB-468): 70.5%; growth at 10 µM (HOP-62): 20%
CCN1C(=O)N(CC)C2C1NN=c1s/c(=C\c3ccc(Cl)cc3Cl)c(=O)n12 (centres undefined) | 7.5 | 61.1 | -43.3 | 12.8 | 14.6 | 29.2 | 5.7 | 12.3 | 46.1 | -7.9 | -20.8 | 42.3 | 14 | 15.8 | 9.7 | 16.9 | 28.9 | 35.9 | 6 | 16.5 | growth at 10 µM (SK-MEL-28): 45.7%; growth at 10 µM (HOP-92): 50.9%; growth at 10 µM (NCI-H226): 48.8%; growth at 10 µM (OVCAR-5): 28.2%; growth at 10 µM (NCI-H522): -8.8%; growth at 10 µM (TK-10): 67.7%; growth at 10 µM (U-251): 11%; growth at 10 µM (MDA-MB-435): -24.8%; growth at 10 µM (MDA-MB-468): 5.4%; growth at 10 µM (HOP-62): 33.5%
